The results in this text go back to patent publication US20020094958A1, “Materials for lysosome modulation and methods of use thereof” (priority 2000, published 2002).

The structures appear in SMILES notation. Where a SMILES comes first, the peptide text is derived from it. The star is where a group is joined. Cbz = O=C(OCc1ccccc1)*; CHN2 = [N-]=[N+]=C*

One experiment concerns lysosomal enzyme levels. Nature of the experiment: Upmodulation of lysosomal enzyme levels in hippocampal slice cultures (Table 1). The settings on record: compounds individually applied to hippocampal slice cultures. It is filed as cell-based, rat. The text has this:
Another aspect of the invention is the provision of compounds to increase cellular content (upmodulation) of lysosomal enzymes. As used herein “upmodulation” is an increase in the cellular content of lysosomal enzymes or in the content of lysosomes. Some inventive lysosomal modulating compounds are comprised by the previously described formulas (1) M-aan—CH═N═N, (2) M-aan—CH2—O—CO—[2-R-4-R-6-R-Phenyl], (3) M-aan—NH—CH2—CH N—NH—CO—NH2 and (4) M—N═N—CO—CH2-aan—O—R. Examples of compounds include, formula (1) benzyloxycarbonyl-Phe-Ala-diazomethylketone and benzyloxycarbonyl-Phe-Phe-diazomethylketone; formula (2) is benzyloxycarbonyl-Phe-Lys-2,4,6-trimethylbenzoyloxymethylketone; formula (3) is H-Gly-Phe-Gly-aldehyde semicarbazone; formula (4) is diazoacetyl-DL-2-aminohexanoic acid-methyl ester. When these compounds were individually applied to hippocampal slice cultures, each facilitated the upmodulation of lysosomal enzyme levels (Table 1). Each of the compounds is available from BACHEM Biosciences Inc. of King of Prussia, Pa. Presently, PADK is the preferred compound for modulation of lysosomal activity.
Lysosomal modulating compounds were identified that unexpectedly stimulate lysosomal activity and/or cellular feedback processes for the upregulation of lysosomal hydrolase levels. […] Thus the inventive lysosomal modulation promotes efficient tau turnover/processing and thereby reduces the ability of abnormally phosphorylated tau to drive non-pathogenic species off of microtubules and into the aggregated state. The non-pathogenic tau molecules would then be more readily available to stabilize microtubules and their transport mechanisms that are important for neuronal functions.

Experiment [1] has as its system hippocampal slice cultures. Nature of the experiment: Continuous PADK application to hippocampal slice cultures over a 20-day period. It is filed as cell-based, rat. An excerpt:
One aspect of the invention is the use of compounds to modulate lysosomal activity. The modulation of lysosomal activity may be, but is not necessarily, accompanied by an increase in cellular content of lysosomes or lysosomal enzymes. Some inventive lysosomal modulating compounds comprise the previously described formulas (1) M-aan—CH═N═N, (2) M-aan—CH2—O—CO—[2-R-4-R-6-R-Phenyl], (3) M-aan—NH—CH2—CH═N—NH—CO—NH2, (4) M-N ═N—CO—CH2—aan—O—R, and combinations thereof. An example of formula (1) is benzyloxycarbonyl-Phe-Ala-diazomethylketone (PADK). As discussed in more detail later, PADK was applied to hippocampal slice cultures at a continuous concentration of 10 μM over a 20-day period. Fresh media and PADK compound were applied every two days.
Benzyloxycarbonyl-Phe-Ala-diazomethylketone (PADK) was applied to hippocampal slice cultures at a continuous concentration of 10 μM over a 20-day period. Fresh media and PADK compound were applied every two days. […] Thus the inventive lysosomal modulation promotes efficient tau turnover/processing and thereby reduces the ability of abnormally phosphorylated tau to drive non-pathogenic species off of microtubules and into the aggregated state. The non-pathogenic tau molecules would then be more readily available to stabilize microtubules and their transport mechanisms that are important for neuronal functions. Such an inverse correlation between the two forms of tau was also evident in the hippocampus of aged mice, where the change vs. age relationships determined for hyperphosphorylated and non-phosphorylated tau were of equal but opposite slopes. Thus, lysosomal modulators may intervene in the progression of certain types of neuronal atrophy, as well as in the cellular processes that contribute to synaptic loss and the severity of Alzheimer-type dementia.

Experiment [2] has as its system hippocampal slice cultures. Nature of the experiment: Synaptic marker decline and recovery after chloroquine-induced lysosomal dysfunction in hippocampal slice cultures. The class given is cell-based, rat. The note with it: for recovery of the postsynaptic marker GluR1 concentration / recovery of the presynaptic marker synaptophysin concentration: 2-day recovery after 6-day 60 μM chloroquine, vs chloroquine baseline. The method, then: The method comprises treatment of a neural tissue culture with a lysosomal disruptor (e.g., chloroquine) to initiate lysosome dysfunction in the culture. The culture is treated with a lysosomal disruptor in order to reproduce features characteristic of neurodegeneration, especially those found in Alzheimer's disease (FIG. 7). Preferably, chloroquine is utilized for the lysosomal disruptor due to its broad targeting of pH-dependent enzymes by disrupting the proton gradient of lysosomes. Chloroquine is added to the culture for an extended period of time (the addition time period) to cause gradual cellular changes.
After a predetermined time, the lysosomal disrupter is removed from the culture and synaptic marker concentrations are determined. Subsequently, small amounts of compounds are administered to the neural tissue to modulate lysosomal enzymes. After such treatment, concentrations of synaptic markers in the neural tissue are determined, and the treated and untreated synaptic marker concentrations are compared to determine synaptic recovery (see FIG. 2). Thus by monitoring decline (during disruptor addition) and subsequent increase (during compound addition) of synaptic markers, synaptic degeneration and recovery can be assessed, and the efficacy of the added compounds can be measured.
In order to induce lysosomal dysfunction, 60 μM chloroquine in media was added separately to groups of hippocampal slice cultures. The chloroquine-containing media was changed every two days. Over a 6-day period, separate groups of slices were harvested and synaptic pathology assessed by determining the content of the postsynaptic marker GluR1. […] In a first set of slices the chloroquine was removed from the feeding media after the 6-day addition period and synaptic recovery was assessed after one and two days by measuring GluR1 concentration. […] Although the rate of decline slowed between the first and second day, there was no evidence of synaptic recovery.
In a second set of slices, synaptic recovery was assessed after removal of chloroquine-containing media and a single addition of 10 μM of the lysosomal modulator benzyloxycarbonyl-Phe-Ala-diazomethyiketone (PADK) in media was applied to cultures. As shown by the closed triangles, addition of PADK functioned to increase the GluR1 marker concentration, indicating recovery from synaptic degeneration.
Lysosomal dysfunction was induced by adding 60 μM chloroquine in media to separate groups of hippocampal slice cultures. The chloroquine-containing media was changed every two days for a total of six days. After the 6-day addition period, the chloroquine was removed from the feeding media of individual sets of cultures and presynaptic marker (synaptophysin) and postsynaptic marker (GluR1) concentrations assessed to provide a baseline indicated by the horizontal dotted lines in FIGS. 3A and 3B. 10 μM PADK, 10 μM Ampakine (trademark of Cortex Pharmaceuticals; Irvine, Calif.), and 10 μM memantine (derivatives of which are a trademark of Merz Pharmaceuticals; Germany) were added separately to separate chloroquine-treated cultures to assess their effects on synaptic recovery. After a 2-day recovery period, the separate groups of cultures were harvested and concentrations of presynaptic (synaptophysin) and postsynaptic (GluR1) markers were measured and compared to the reduced levels resulting from the 6-day chloroquine treatment. An increase from the baseline indicates recovery while no difference or further reduction of marker concentrations from the baseline indicates no recovery of synaptic maintenance.

For experiment [3], the system named is hippocampal slice cultures. Kind of experiment: Immunoblot of tau species and lysosomal enzymes after chloroquine-mediated lysosomal dysfunction in hippocampal slice cultures. The class given is cell-based, rat. The text has this: Lysosomal dysfunction was produced in hippocampal slice cultures with chloroquine as in Example 2.
(In general: Immunoblotting shows a protein as a band on a membrane.)

Experiment [4] relates to hippocampal slice cultures. Nature of the experiment: Horse-radish peroxidase dendritic transport scoring in hippocampal slice cultures. It is filed as cell-based, rat. The protocol: Lysosomal dysfunction was produced in hippocampal slice cultures with chloroquine as in Example 2. Separate groups of slices were assessed for transport capability by applying horse-radish peroxidase to neurons and scoring its transport from cell bodies along dendrites by two independent observers. […] By monitoring intracellular tau deposition, microtubule stabilization marker (acetylated tubulin), and transport capability, it appears that changes in all of these related parameters contribute to the link between lysosomal modulation and synapse maintenance (FIG. 7).

A further experiment deals with cathepsin D. Kind of experiment: Cathepsin D in brain tissue of rats given PADK in drinking water. The class given is in vivo, rat. The settings on record: adult male rats, approximately 3 to 4 mg/kg/day, seven days, vs untreated group. The method, then: A further aspect of the invention is a method of modulating lysosomal function in a subject comprising administering to the subject a therapeutically effective amount of at least one inventive lysosome modulating compound or a physiologically acceptable salt thereof. As discussed in more detail later, the lysosome modulating compound benzyloxycarbonyl-Phe-Ala-diazomethylketone (PADK) was added to the drinking water of a first group of 5 adult male rats in an amount corresponding to 3 to 4 mg PADK/kg rat weight/day. […] After seven days, hippocampal and neocortical tissue was isolated from the first and the second groups. The concentration of the lysosomal enzyme cathepsin D in tissue samples was assessed by immunoblot for each of the groups.
The lysosomal modulator benzyloxycarbonyl-Phe-Ala-diazomethylketone (PADK) was added to the drinking water of a first group of 5 adult male rats in an amount corresponding to approximately 3 to 4 mg PADK/ kg rat weight/day. […] After seven days, hippocampal and neocortical tissue was isolated from the first and the second groups. The concentration of cathepsin D in tissue samples was assessed by immunoblot for each of the groups.

The mark [5] stands for this setting: 10 μM continuous, 20-day period.
The mark [6] stands for this setting: 2 days PADK following 6-day chloroquine treatment.
Setting [7] is: PADK for two days following 6-day chloroquine period.
Where [8] appears, read: 6 days chloroquine then 2 days media alone, vs untreated control.

In the case of `C[C@H](NC(=O)[C@H](Cc1ccccc1)NC(=O)OCc1ccccc1)C(=O)C=[N+]=[N-]` [(1), benzyloxycarbonyl-Phe-Ala-diazomethylketone], the upmodulated cathepsin types result in the experiment on lysosomal enzyme levels was “B, D, S”. Moreover, in experiment [1] (setting [5]), the “cathepsin D levels” value is “stably enhanced”, the non-pathogenic tau isoforms result is recorded as “gradual increase”, the “pathogenic hyperphosphorylated tau species concentration” value was “gradually reduced” and the “synaptic marker (GluR1)” value is given as “without any reduction”. Also, the “concentration of the lysosomal enzyme cathepsin D” value in experiment [1] (10 μM, after 5 days of treatment) is on record as “not significantly altered”. In experiment [2] (Example 2, single 10 μM addition after 6-day chloroquine, one day), the “recovery from synaptic degeneration (GluR1)” value is on record as “significant recovery”. In addition, in experiment [2] (Example 2, single 10 μM addition after 6-day chloroquine, two days), the “recovery of GluR1 level” value is listed as 71%. Also, in experiment [2] (Example 3, 10 μM), the “recovery of the postsynaptic marker GluR1 concentration” value amounted to 70% and the “recovery of the presynaptic marker synaptophysin concentration” value is about 35%. In addition, in experiment [3] (setting [6]), the “55-69 kDa tau species” value is “reduction” and the “cathepsin D” value is listed as “robust upmodulation”. For the same compound, the “levels of lysosomal enzymes cathepsin B (CB), cathepsin D (CD), cathepsin S (CS)” value in experiment [3] (FIG. 5 immunoblots) is given as “enhanced levels”. For the same compound, the “control levels of tau isoforms” value in experiment [3] (PADK addition alone (no chloroquine)) is recorded as “without altering”. Moreover, in experiment [4] (setting [7]), the “restoration of transport capability” value is on record as “significant restoration” and the transport failure result was “did not exhibit transport failure”. For the same compound, the “lysosomal enzyme (cathepsin D) concentration in hippocampal and neocortical tissue” value in the experiment on cathepsin D was “significant increases”.
Regarding `[N-]=[N+]=CC(=O)[C@H](Cc1ccccc1)NC(=O)[C@H](Cc1ccccc1)NC(=O)OCc1ccccc1` [(2), benzyloxycarbonyl-Phe-Phe-diazomethylketone] (Cbz-Phe-Phe-CHN2), the upmodulated cathepsin types entry in the experiment with lysosomal enzyme levels was “B, D”.
On to `NCC(=O)NC(Cc1ccccc1)C(=O)NCC=NNC(N)=O` (stereo not drawn) [(4), H-Gly-Phe-Gly-aldehyde semicarbazone], for which the upmodulated cathepsin types result with lysosomal enzyme levels is given as “B, D”.
For `CCN(CC)CCCC(C)Nc1ccnc2cc(Cl)ccc12` (centres unmarked) [chloroquine, reference compound], the “GluR1 concentration during disruptor exposure” value in experiment [2] (60 μM, 6-day exposure period) is reported as “decreased”. For the same compound, in experiment [3] (setting [8]), the “cathepsin D (CD)” value is reported as “small compensatory increase” and the “potentially pathogenic tau species of 55-69 kDa” value is reported as “enhanced levels”. The transport capacity entry in experiment [4] (6-day chloroquine followed by 2 days media alone, vs untreated slices) was “adversely affected”.
On to `CC12CC3CC(C)(C1)CC(N)(C3)C2` [memantine, reference compound], for which, in experiment [2] (Example 3, 10 μM), the “recovery of the postsynaptic marker GluR1 concentration” value is on record as “No statistically significant recovery” and the “recovery of the presynaptic marker synaptophysin concentration” value was “No statistically significant recovery”. In addition, the “GluR1 level change vs baseline” value in experiment [2] (Example 3, 10 μM, 2-day recovery period, FIG. 3A) was “small decrease”.
